In patent US10618903B2, “Heteroaryl substituted aminopyridine compounds” (BRISTOL-MYERS SQUIBB COMPANY, priority 2015, dated 2020):

Molecular target: IRAK4 (Homo sapiens (Human), UniProt Q9NWZ3)
Assay: IRAK4 Inhibition Assay
Format: biochemical
Conditions: ATP 500 μM; IRAK4 0.6 nM
Experimental: The assays were performed in U-bottom 384-well plates. The final assay volume was 30 μL prepared from 15 μL additions of enzyme and substrates (fluoresceinated peptide and ATP) and test compounds in assay buffer (20 mM HEPES pH 7.2, 10 mM MgCl2, 0.015% Brij 35 and 4 mM DTT). The reaction was initiated by the combination of IRAK4 with substrates and test compounds. The reaction mixture was incubated at room temperature for 60 min. and terminated by adding 45 μL of 35 mM EDTA to each sample. The reaction mixture was analyzed on the Caliper LABCHIP® 3000 (Caliper, Hopkinton, Mass.) by electrophoretic separation of the fluorescent substrate and phosphorylated product. Inhibition data were calculated by comparison to no enzyme control reactions for 100% inhibition and vehicle-only reactions for 0% inhibition. The final concentrations of reagents in the assays are ATP, 500 μM; FL-IPTSPITTTYFFFKKK peptide 1.5 μM; IRAK4, 0.6 nM; and DMSO, 1.6%.

Sequence of IRAK4 (Q9NWZ3 whole entry): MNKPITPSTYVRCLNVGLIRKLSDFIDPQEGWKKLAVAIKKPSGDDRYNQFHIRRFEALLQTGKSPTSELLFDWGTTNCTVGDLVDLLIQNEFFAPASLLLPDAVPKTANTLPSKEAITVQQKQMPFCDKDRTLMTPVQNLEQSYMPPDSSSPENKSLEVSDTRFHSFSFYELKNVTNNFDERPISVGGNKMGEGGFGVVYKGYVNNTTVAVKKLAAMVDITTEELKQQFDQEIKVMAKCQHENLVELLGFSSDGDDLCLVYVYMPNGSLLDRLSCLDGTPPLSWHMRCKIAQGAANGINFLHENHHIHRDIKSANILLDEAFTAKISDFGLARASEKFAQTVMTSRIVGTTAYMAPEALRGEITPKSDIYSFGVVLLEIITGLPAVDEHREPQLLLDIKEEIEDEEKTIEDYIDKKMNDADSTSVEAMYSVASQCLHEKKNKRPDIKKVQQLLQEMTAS

COC1CC(Nc2cc(-c3cnn4cc(Cl)cnc34)ncc2C(=O)NC[C@@H](F)C(C)(C)O)CC1(F)F (single isomer, unassigned) [Example 14]
IC50: 22 nM

CC(C)(O)[C@H](F)CNC(=O)c1cnc(-c2cnn3cc(C#N)cnc23)cc1N[C@H]1COC[C@@H]1F (single isomer, unassigned) [Example 116]
IC50: 21 nM

CC(C)(O)[C@H](F)CNC(=O)c1cnc(-c2cnn3cc(C#N)cnc23)cc1N[C@H]1COC[C@@H]1F (single isomer, unassigned) [Example 117]
IC50: 39 nM

CC(C)(O)[C@H](F)CNC(=O)c1cnc(-c2cnn3cc(C#N)cnc23)cc1NCC1(O)CCCOC1 (single isomer, unassigned) [Example 122]
IC50: 30 nM

CC(C)(O)[C@H](F)CNC(=O)c1cnc(-c2cnn3cc(C#N)cnc23)cc1NCC1(O)CCCOC1 (single isomer, unassigned) [Example 123]
IC50: 42 nM

CC(C)(O)[C@H](F)CNC(=O)c1cnc(-c2cnc3cccnn23)cc1NC1COCC1O (single isomer, unassigned) [Example 134]
IC50: 92 nM

CC(C)(O)[C@H](F)CNC(=O)c1cnc(-c2cnc3cccnn23)cc1NC1COCC1O (single isomer, unassigned) [Example 135]
IC50: 44 nM

CC(C)Nc1cc(-c2cnn3cc(Cl)cnc23)ncc1C(=O)NCC(F)C(O)(CO)CO (centres unmarked) [Example 8, 6-(6-chloropyrazolo[1,5-a]pyrimidin-3-yl)-N-(2-fluoro-3,4-dihydroxy-3-(hydroxymethyl)butyl)-4-(isopropylamino)nicotinamide]
IC50: 24 nM

CC(C)Nc1cc(-c2cnn3cc(Cl)cnc23)ncc1C(=O)NCC(F)C1(O)COC1 (centres unmarked) [Example 9, 6-(6-chloropyrazolo[1,5-a]pyrimidin-3-yl)-N-(2-fluoro-2-(3-hydroxyoxetan-3-yl)ethyl)-4-(isopropylamino)nicotinamide]
IC50: 5 nM

CC(C)Nc1cc(-c2cnn3cc(Cl)cnc23)ncc1C(=O)Nc1cnn(CC(=O)NC[C@@H](F)C(C)(C)O)c1 [Example 10, (R)-6-(6-chloropyrazolo[1,5-a]pyrimidin-3-yl)-N-(1-(2-((2-fluoro-3-hydroxy-3-methylbutyl)amino)-2-oxoethyl)-1H-pyrazol-4-yl)-4-(isopropylamino)nicotinamide]
IC50: 99 nM

CO[C@H]1CC[C@H](NC(=O)c2cnc(-c3cnn4cc(Cl)cnc34)cc2NC(C)C)CC1 [Example 11, 6-(6-chloropyrazolo[1,5-a]pyrimidin-3-yl)-4-(isopropylamino)-N-((1R,4R)-4-methoxycyclohexyl)nicotinamide]
IC50: 14 nM

CC(C)(F)CCNC(=O)c1cnc(-c2cnn3cc(Cl)cnc23)cc1NC1COC1 [Example 12, 6-(6-chloropyrazolo[1,5-a]pyrimidin-3-yl)-N-(3-fluoro-3-methylbutyl)-4-(oxetan-3-ylamino)nicotinamide]
IC50: 92 nM

COC1CCC(F)(CCNC(=O)c2cnc(-c3cnn4cc(Cl)cnc34)cc2NC2COC2)CC1 (centres unmarked) [Example 17, 6-(6-chloropyrazolo[1,5-a]pyrimidin-3-yl)-N-(2-(1-fluoro-4-methoxycyclohexyl)ethyl)-4-(oxetan-3-ylamino)nicotinamide]
IC50: 19 nM

CNC(=O)[C@H]1CC[C@H](NC(=O)c2cnc(-c3cnn4cc(Cl)cnc34)cc2NCC(C)(C)F)CC1 [Example 24, 6-(6-chloropyrazolo[1,5-a]pyrimidin-3-yl)-4-((2-fluoro-2-methylpropyl)amino)-N-((1r,4r)-4-(methylcarbamoyl)cyclohexyl)nicotinamide]
IC50: 35 nM

CC(C)Nc1cc(-c2cnn3cc(Cl)cnc23)ncc1C(=O)NCCc1ccc(S(N)(=O)=O)cc1 [Example 26, 6-(6-chloropyrazolo[1,5-a]pyrimidin-3-yl)-4-(isopropylamino)-N-(4-sulfamoylphenethyl)nicotinamide]
IC50: 8 nM

CC(C)Nc1cc(-c2cnn3cc(Cl)cnc23)ncc1C(=O)N[C@H]1CC[C@H](C(=O)NC(C)C)CC1 [Example 29, 6-(6-chloropyrazolo[1,5-a]pyrimidin-3-yl)-4-(isopropylamino)-N-((1r,4r)-4-(isopropylcarbamoyl)cyclohexyl)nicotinamide]
IC50: 24 nM

CC(C)(O)[C@H](F)CNC(=O)c1cnc(-c2cnn3cc(Cl)cnc23)cc1N[C@@H]1CCN(c2ncc(F)cn2)C1 [Example 36, 6-(6-chloropyrazolo[1,5-a]pyrimidin-3-yl)-N—((R)-2-fluoro-3-hydroxy-3-methylbutyl)-4-(((R)-1-(5-fluoropyrimidin-2-yl)pyrrolidin-3-yl)amino)nicotinamide]
IC50: 5 nM

CC1(CNc2cc(-c3cnn4cc(Cl)cnc34)ncc2C(=O)NC[C@@H](F)C(C)(C)O)COC1 [Example 38, (R)-6-(6-chloropyrazolo[1,5-a]pyrimidin-3-yl)-N-(2-fluoro-3-hydroxy-3-methylbutyl)-4-(((3-methyloxetan-3-yl)methyl)amino)nicotinamide]
IC50: 7 nM

CC(C)(O)[C@H](F)CNC(=O)c1cnc(-c2cnn3cc(Cl)cnc23)cc1NCC1(O)COC1 [Example 39, (R)-6-(6-chloropyrazolo[1,5-a]pyrimidin-3-yl)-N-(2-fluoro-3-hydroxy-3-methylbutyl)-4-(((3-hydroxyoxetan-3-yl)methyl)amino)nicotinamide]
IC50: 18 nM

CC(C)(O)[C@H](F)CNC(=O)c1cnc(-c2cnn3cc(Cl)cnc23)cc1N[C@@H]1COC[C@H]1O [Example 42, 6-(6-chloropyrazolo[1,5-a]pyrimidin-3-yl)-N—((R)-2-fluoro-3-hydroxy-3-methylbutyl)-4-(((3R,4S)-4-hydroxytetrahydrofuran-3-yl)amino) nicotinamide]
IC50: 8 nM

CC(C)(O)[C@H](F)CNC(=O)c1cnc(-c2cnn3cc(Cl)cnc23)cc1N[C@@H]1COC[C@H]1F [Example 43, 6-(6-chloropyrazolo[1,5-a]pyrimidin-3-yl)-N—((R)-2-fluoro-3-hydroxy-3-methylbutyl)-4-(((3R,4S)-4-fluorotetrahydrofuran-3-yl)amino)nicotinamide]
IC50: 17 nM

CNC(=O)Cn1cc(NC(=O)c2cnc(-c3cnn4cc(Cl)cnc34)cc2NC(C)C)cn1 [Example 45, 6-(6-chloropyrazolo[1,5-a]pyrimidin-3-yl)-4-(isopropylamino)-N-(1-(2-(methylamino)-2-oxoethyl)-1H-pyrazol-4-yl)nicotinamide]
IC50: 34 nM

CC(C)(O)[C@H](F)CNC(=O)c1cnc(-c2cnn3cc(Cl)cnc23)cc1NC1CCOC1 (stereo partly drawn) [Example 53, 6-(6-chloropyrazolo[1,5-a]pyrimidin-3-yl)-N—((R)-2-fluoro-3-hydroxy-3-methylbutyl)-4-((tetrahydrofuran-3-yl)amino)nicotinamide]
IC50: 4 nM

CC(C)(O)[C@H](F)CNC(=O)c1cnc(-c2cnn3cc(Cl)cnc23)cc1NC1CCOC1 (stereo partly drawn) [Example 54, 6-(6-chloropyrazolo[1,5-a]pyrimidin-3-yl)-N—((R)-2-fluoro-3-hydroxy-3-methylbutyl)-4-((tetrahydrofuran-3-yl)amino)nicotinamide]
IC50: 3 nM

CC(C)Nc1cc(-c2cnn3cc(Cl)cnc23)ncc1C(=O)NCCC1(O)CCC(C)(O)CC1 (centres unmarked) [Example 55, 6-(6-chloropyrazolo[1,5-a]pyrimidin-3-yl)-N-(2-(1,4-dihydroxy-4-methylcyclohexyl)ethyl)-4-(isopropylamino)nicotinamide]
IC50: 9 nM

CC(C)(O)[C@H](F)CNC(=O)c1cnc(-c2cnn3cc(Cl)cnc23)cc1N[C@H]1C[C@H](C(C)(C)O)C1 [Example 59, 6-(6-chloropyrazolo[1,5-a]pyrimidin-3-yl)-N—((R)-2-fluoro-3-hydroxy-3-methylbutyl)-4-(((1r,3R)-3-(2-hydroxypropan-2-yl)cyclobutyl)amino)nicotinamide]
IC50: 6 nM

CC(C)Nc1cc(-c2cnn3cc(Cl)cnc23)ncc1C(=O)NCCC(=O)N1CCOCC1 [Example 62, 6-(6-chloropyrazolo[1,5-a]pyrimidin-3-yl)-4-(isopropylamino)-N-(3-morpholino-3-oxopropyl)nicotinamide]
IC50: 47 nM

CC(C)Nc1cc(-c2cnn3cc(Cl)cnc23)ncc1C(=O)NCC(=O)N1CCC2(CCO2)CC1 [Example 63, 6-(6-chloropyrazolo[1,5-a]pyrimidin-3-yl)-4-(isopropylamino)-N-(2-oxo-2-(1-oxa-7-azaspiro[3.5]nonan-7-yl)ethyl)nicotinamide]
IC50: 8 nM

CC(C)(O)[C@H](F)CNC(=O)c1cnc(-c2cnn3cc(Cl)cnc23)cc1NCC(F)(F)F [Example 64, (R)-6-(6-chloropyrazolo[1,5-a]pyrimidin-3-yl)-N-(2-fluoro-3-hydroxy-3-methylbutyl)-4-((2,2,2-trifluoroethyl)amino)nicotinamide]
IC50: 5 nM

CC(C)(C)Nc1cc(-c2cnn3cc(Cl)cnc23)ncc1C(=O)NC[C@@H](F)C(C)(C)O [Example 72, (R)-4-(tert-butylamino)-6-(6-chloropyrazolo[1,5-a]pyrimidin-3-yl)-N-(2-fluoro-3-hydroxy-3-methylbutyl) nicotinamide]
IC50: 2 nM

CC(C)Nc1cc(-c2cnn3cc(Cl)cnc23)ncc1C(=O)NC1CCN(S(=O)(=O)C(C)C)CC1 [Example 74, 6-(6-chloropyrazolo[1,5-a]pyrimidin-3-yl)-4-(isopropylamino)-N-(1-(isopropylsulfonyl)piperidin-4-yl)nicotinamide]
IC50: 26 nM

CC(C)Nc1cc(-c2cnn3cc(Cl)cnc23)ncc1C(=O)N[C@@H]1CC[C@@H](CO)OC1 [Example 77, 6-(6-chloropyrazolo[1,5-a]pyrimidin-3-yl)-N-((3R,6S)-6-(hydroxymethyl)tetrahydro-2H-pyran-3-yl)-4-(isopropylamino)nicotinamide]
IC50: 99 nM
